“And” between values parts separate entries of the source, which are not always exact repeats. Equal values may be shown once. Read-outs that look alike come from different tables or passages of the source. Blank lines part the entries; values can stand above or below the compound they belong to.
Experiments:
Rac1 [1] = target: T1, Rac1 (Homo sapiens, UniProt P63000); test: Rac activity inhibition by EHop-016 (reported), MDA-MB-435 metastatic cells; type: cell-based
T1 construct: host or cells: MDA-MB-435

Rac1 [2] = target: T1, Rac1; conditions: cited from earlier work
Cdc42 = Cdc42 (Homo sapiens, UniProt P60953); conditions: cited from earlier work
Cdc42, sequence (P60953 whole entry): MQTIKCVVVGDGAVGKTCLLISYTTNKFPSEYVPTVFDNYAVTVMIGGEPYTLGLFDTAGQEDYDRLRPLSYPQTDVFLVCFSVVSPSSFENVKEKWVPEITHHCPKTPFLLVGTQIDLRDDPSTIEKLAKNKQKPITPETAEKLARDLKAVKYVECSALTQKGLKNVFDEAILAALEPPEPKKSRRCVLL

[3] = after oral and intraperitoneal (i.p.) administration; cited from earlier work
mammary tumor = conditions: cited from earlier work
MDA-MB-231 cells = test: Cell viability assay (CellTiter 96 / MTT), MDA-MB-231; conditions: Homo sapiens, MDA-MB-231, read-out: GI50 (μM) MDA-MB-231
Rac and Cdc42 = conditions: cited from earlier work
Rac = conditions: read-out: IC50 (effective concentrations); cited from earlier work
MDA-MB-231 = test: Migration inhibition, MDA-MB-231 (Table 1B); type: cell-based; conditions: Homo sapiens

SMILES: CCn1c2ccccc2c2cc(Nc3ccnc(NCCCN4CCOCC4)n3)ccc21 [EHop-016]
- potency relative to NSC23766 (Rac1 [1]): ~100 ×
- IC50 (Rac1 [2]; MDA-MB-435 metastatic cells, read-out: IC50 for Rac activity): 1100 nM and ~1100 nM
- concentrations inhibiting Rac1 activity (Rac1 [2]): < 5 µM
- inhibition of Rac activity (Rac1 [2]; higher concentrations (>10 μM)): 100%
- IC50 (Rac1 [2]; read-out: IC50 (Rac inhibitor)): 1100 nM
- concentrations inhibiting Cdc42 activity (Cdc42): ≥ 10 µM
- inhibition of Cdc42 activity (Cdc42; higher concentrations (>10 μM)): 75%
- IC50 (Cdc42; read-out: IC50 for Cdc42 inhibition): ~8 µM
- average half-life [3]: 4.5 h
- bioavailability [3]: ~30%
- reduction of tumor growth (mammary tumor; 10 mg/kg BW): ~40%
- effect on mammary tumor growth, metastasis and angiogenesis (mammary tumor; 25 mg/kg BW): reduces mammary tumor growth, metastasis, and angiogenesis
- toxicity (mammary tumor; 25 mg/kg BW): without apparent toxicity

- GI50 (MDA-MB-231 cells): > 50 µM
SMILES: CCn1c2ccccc2c2cc(-n3nncc3CCO)ccc21 [I-8, 2-(1-(9-ethyl-9H-carbazol-3-yl)-1H-1,2,3-triazol-5-yl)ethan-1-ol]

SMILES: Cc1cc2cc(Nc3ccnc(Nc4ccc5[nH]c(C)cc5c4)n3)ccc2[nH]1 [Aza-1]
- effective concentration range (Rac and Cdc42): effective in the micromolar range

SMILES: CCN(CC)CCCC(C)Nc1nc(C)cc(Nc2ccc3nc(C)cc(N)c3c2)n1 (centres unmarked) [NSC23766]
- IC50 (Rac): > 75 µM

- GI50 (MDA-MB-231 cells): 0.408 µM
SMILES: CCn1c2ccccc2c2cc(-n3nncc3-c3ccsc3)ccc21 [I-5, 9-ethyl-3-(5-(thiophen-3-yl)-1H-1,2,3-triazol-1-yl)-9H-carbazole]
- inhibition at 1 µM (MDA-MB-231): 2.4%

- GI50 (MDA-MB-231 cells): > 50 µM
SMILES: CCn1c2ccccc2c2cc(-n3nncc3-c3cccnc3)ccc21 [I-4, 9-ethyl-3-(5-(pyridin-3-yl)-1H-1,2,3-triazol-1-yl)-9H-carbazole]
- inhibition at 10 µM (MDA-MB-231): 65.1%

SMILES: COc1ccc(C2=NN(c3ccc(S(N)(=O)=O)cc3)C(c3ccccc3)C2)cc1 (centres unmarked) [CID2950007/ML141]
- effective concentration range (Rac and Cdc42): effective in the micromolar range

- GI50 (MDA-MB-231 cells): > 50 µM
SMILES: CCn1c2ccccc2c2cc(-n3nncc3-c3ccc(Oc4ccccc4)cc3)ccc21 [I-7]
- inhibition at 10 µM (MDA-MB-231): 30.8%

- GI50 (MDA-MB-231 cells): 0.248 µM
SMILES: CCn1c2ccccc2c2cc(-n3nncc3-c3cccc(OC)c3)ccc21 [I-3, 9-ethyl-3-(5-(3-methoxyphenyl)-1H-1,2,3-triazol-1-yl)-9H-carbazole]
- inhibition at 1 µM (MDA-MB-231): ≤ 1%

- GI50 (MDA-MB-231 cells): > 50 µM
SMILES: CCn1c2ccccc2c2cc(-n3nncc3-c3ccccn3)ccc21 [I-6, 9-ethyl-3-(5-(pyridin-2-yl)-1H-1,2,3-triazol-1-yl)-9H-carbazole]
- inhibition at 10 µM (MDA-MB-231): 28%

- GI50 (MDA-MB-231 cells): 1.33 µM
SMILES: CCn1c2ccccc2c2cc(-n3nncc3-c3cccc(C)c3)ccc21 [I-2, 9-ethyl-3-(5-(m-tolyl)-1H-1,2,3-triazol-1-yl)-9H-carbazole]
- inhibition at 1 µM (MDA-MB-231): ≤ 1%
